Reference: patent publication US9890189B2, “Gemcitabine prodrugs and uses thereof” (BoYen Therapeutics, Inc., priority 2012, dated 2018)

How the values were obtained:
[1] = In vitro metabolic conversion assay using human liver S9 fractions; assay type: in vitro ADME; conditions: 10 μM, 37° C., 60 minutes, LC/MS/MS; for Formation of Gemcitabine: not quantitatively monitored
Experimental: Method H: In Vitro Metabolic Conversion Assay Using Human Liver S9 Fractions
A representative sampling of prodrug compounds was incubated with human liver S9 fractions (Life Technologies Corporation) at 10 μM in duplicates. Incubations were carried out at 37° C. in a shaker water bath. Samples were taken at 0 and 60 minutes. Negative controls (without S9 fractions) and positive controls (7-ethoxycoumarin and 7-hydroxycoumarin) were run concurrently with the test articles in duplicates. All samples were analyzed using LC/MS/MS; depletion of the parent compounds and the formation of gemcitabine were monitored, though the latter was not quantitatively monitored.
After incubation with human liver S9 fractions for 60 minutes, depletion of each test compound was observed along with formation of gemcitabine as a metabolite.

[2] = system: human HCT116 colorectal adenocarcinoma; assay: Efficacy evaluation in HCT116 tumor cell xenograft model in nude mice; assay type: in vivo; conditions: female nude mice, subcutaneous HCT116 tumors, Day 14 vs control group
Experimental: Method I: Efficacy Evaluation in HCT116 Tumor Cell Xenograft Model in Nude Mice Compounds 17, 18, 19 and 32 were evaluated for oral activity against human HCT116 colorectal adenocarcinoma in female nude mice. For the treatment groups, the above compounds were given perorally in 15% Tween 80 at a dose of 20 mg/kg once daily for 14 days. As a reference group, gemcitabine was administered intraperitoneally at 160 mg/kg once every three days for 4 doses. A control group received only the vehicle on the same peroral schedule as that of the treatment groups. Treatment began on Day 1 in all groups of female nude mice (n=8) bearing subcutaneous tumors of ˜180 mm^3 in size; the study duration was 14 days. Treatment results were presented as Tumor Growth Inhibition (TGI) as a percentage of average tumor size of untreated mice in the control group at Day 14.

[3] = perorally in 15% Tween 80, 20 mg/kg once daily for 14 days

Row | SMILES | % of Parent Remaining [1] [%] | Formation of Gemcitabine [1] | Tumor Growth Inhibition (TGI) [2, 3] [%] | Tumor Growth Inhibition (TGI) ([2]; intraperitoneally 160 mg/kg once every three days for 4 doses) [%]
1 | Nc1ccn([C@@H]2O[C@H](COC(=O)CCCCC(=O)Nc3ccccc3)[C@@H](O)C2(F)F)c(=O)n1 [Compound 6, 4-Amino-1-[(2R,4R,5R)-5-((6-anilino-6-oxo-hexanoyloxy)methyl)-3,3-difluoro-4-hydroxy-oxolan-2-yl]-1,2-dihydropyrimidin-2-one] | 8 | ✓ |  | 
2 | CCCCOC(=O)Nc1ccn([C@@H]2O[C@H](COC(=O)CCc3ccccc3)[C@@H](O)C2(F)F)c(=O)n1 [Compound 17, 4-(Butyloxycarbonylamino)-1-[(2R,4R,5R)-3,3-difluoro-4-hydroxy-5-(3-phenylpropanoyloxymethyl)oxolan-2-yl]-1,2-dihydropyrimidin-2-one] |  |  | 77.3 | 
3 | CCOC(=O)Nc1ccn([C@@H]2O[C@H](CO)[C@@H](OC(=O)CCCCCCC(=O)Nc3ccccc3)C2(F)F)c(=O)n1 [Compound 62, 1-[(2R,4R,5R)-4-(8-Anilino-8-oxo-octanoyloxy)-3,3-difluoro-5-hydroxymethyl-oxolan-2-yl]-1,2-dihydro-4-(ethoxycarbonylamino)-pyrimidin-2-one] | 2 | ✓ |  | 
4 | CCOC(=O)Nc1ccn([C@@H]2O[C@H](COC(=O)CCc3cccnc3)[C@@H](O)C2(F)F)c(=O)n1 [Compound 11, 1-[(2R,4R,5R)-3,3-Difluoro-4-hydroxy-5-(3-(3-pyridyl)-propanoyloxymethyl)oxolan-2-yl]-1,2-dihydro-4-(ethoxycarbonylamino)-pyrimidin-2-one] | 0 | ✓ |  | 
5 | CCOC(=O)Nc1ccn([C@@H]2O[C@H](CO)[C@@H](OC(=O)CCc3ccccc3)C2(F)F)c(=O)n1 [Compound 58, 1-[(2R,4R,5R)-3,3-Difluoro-5-hydroxymethyl-4-(3-phenylpropanoyloxy)oxolan-2-yl]-1,2-dihydro-4-(ethoxycarbonylamino)-pyrimidin-2-one] | 0 | ✓ |  | 
6 | CCOC(=O)Nc1ccn([C@@H]2O[C@H](COC(=O)CCCCCCC(=O)Nc3ccccc3)[C@@H](O)C2(F)F)c(=O)n1 [Compound 14, 1-[(2R,4R,5R)-5-((8-Anilino-8-oxo-octanoyloxy)methyl)-3,3-difluoro-4-hydroxy-oxolan-2-yl]-1,2-dihydro-4-(ethoxycarbonylamino)-pyrimidin-2-one] | 0 | ✓ |  | 
7 | Nc1ccn([C@@H]2O[C@H](COC(=O)CCc3ccccc3)[C@@H](O)C2(F)F)c(=O)n1 [Compound 3, 4-Amino-1-[(2R,4R,5R)-3,3-difluoro-4-hydroxy-5-(3-phenylpropanoyloxymethyl)oxolan-2-yl]-1,2-dihydropyrimidin-2-one] | 1 | ✓ |  | 
8 | CCCCOC(=O)Nc1ccn([C@@H]2O[C@H](COC(=O)CCC(=O)Nc3ccccc3)[C@@H](O)C2(F)F)c(=O)n1 [Compound 19, 1-[(2R,4R,5R)-5-((4-Anilino-4-oxo-butanoyloxy)methyl)-3,3-difluoro-4-hydroxy-oxolan-2-yl]-4-(butyloxycarbonylamino)-1,2-dihydro-pyrimidin-2-one] |  |  | 75.8 | 
9 | Nc1ccn([C@@H]2O[C@H](CO)[C@@H](O)C2(F)F)c(=O)n1 [gemcitabine] |  |  |  | 85.6
10 | CCCCOC(=O)Nc1ccn([C@@H]2O[C@H](COC(=O)CCc3cccnc3)[C@@H](O)C2(F)F)c(=O)n1 [Compound 18, 4-(Butyloxycarbonylamino)-1-[(2R,4R,5R)-3,3-difluoro-4-hydroxy-5-(3-(3-pyridyl)propanoyloxymethyl)oxolan-2-yl]-1,2-dihydro-pyrimidin-2-one] |  |  | 81.1 | 
11 | CCOC(=O)Nc1ccn([C@@H]2O[C@H](CO)[C@@H](OC(=O)CCc3cccnc3)C2(F)F)c(=O)n1 [Compound 59, 1-[(2R,4R,5R)-3,3-Difluoro-5-hydroxymethyl-4-(3-(3-pyridyl)propanoyloxy)oxolan-2-yl]-1,2-dihydro-4-(ethoxycarbonylamino)-pyrimidin-2-one] | 1 | ✓ |  | 
12 | CCOC(=O)Nc1ccn([C@@H]2O[C@H](COC(=O)CCc3ccccc3)[C@@H](O)C2(F)F)c(=O)n1 [Compound 10, 1-[(2R,4R,5R)-3,3-Difluoro-4-hydroxy-5-(3-phenylpropanoyloxymethyl)oxolan-2-yl]-1,2-dihydro-4-(ethoxycarbonylamino)-pyrimidin-2-one] | 0 | ✓ |  | 
13 | CCCCCOC(=O)Nc1ccn([C@@H]2O[C@H](COC(=O)CCc3cccnc3)[C@@H](O)C2(F)F)c(=O)n1 [Compound 32, 1-[(2R,4R,5R)-3,3-Difluoro-4-hydroxy-5-(3-(3-pyridyl)-propanoyloxymethyl)oxolan-2-yl]-1,2-dihydro-4-(pentyloxycarbonylamino)-pyrimidin-2-one] |  |  | 86.7 | 
14 | CCOC(=O)Nc1ccn([C@@H]2O[C@H](COC(=O)CCCCC(=O)Nc3ccccc3)[C@@H](O)C2(F)F)c(=O)n1 [Compound 13, 1-[(2R,4R,5R)-5-((6-Anilino-6-oxo-hexanoyloxy)methyl)-3,3-difluoro-4-hydroxy-oxolan-2-yl]-1,2-dihydro-4-(ethoxycarbonylamino)-pyrimidin-2-one] | 13 | ✓ |  | 
